# Experimental data taken from patent US20200181284A1, “EPIGENETIC INHIBITORS FOR SENSITIZING HEMATOLOGIC OR OTHER MALIGNANCIES TO GLUCOCORTICOID THERAPY” (UNIVERSITY OF SOUTHERN CALIFORNIA, priority 2017, published 2020).
# Columns and labels:
# [1] = test system: SUP-B15; assay: Cell death assay (PrestoBlue viability, 3 days); format: cell-based, human; settings: SUP-B15, highest concentration (10 μM), 3 days
# Description: (§1) Cell death assays: We used PrestoBlue to measure cell viability in response to knockdown and treatment. Cells were grown to a density of 250,000 cell/ml, then dispensed into black tissue culture plates and grown overnight. In the morning, cells were treated. For both CAL-101 (Selleckchem, S2226) and dex (Sigma, D4902), viability was measured after 3 days. As PrestoBlue measures NADPH/NADH metabolites, the balance of which can be affected by GC treatment, we performed frequent cell count spot checks manually by trypan blue exclusion to ensure that fluorescence measurements reflected true viability. Both CAL-101 and dex were dissolved in ethanol, and used 1:1000 in cell culture for a final ethanol concentration of 0.1%. Combination treatments were performed in triplicate in 384 well plates with 20 dilutions of dex from 10^M to 0 and 9 dilutions of CAL-101 from 10^M to 0. Viabilities and EC50 were then calculated using four parameter non-least squares fitting using Prism 6. qPCR of Causative genes: Cells were grown to a density of 1 million cells/ml, then aliquoted into 6 well plates in the afternoon, then grown overnight. Cells were then treated with the drugs and times indicated, at which point cells were spun down at 400 g for 5 minutes, the medium aspirated, and the pellet resuspended in 0.7 ml Qiazol/Trizol and frozen. RNA was then isolated using the miRNAeasy protocol. cDNA was then prepared form 1^g of RNA suing SuperScript3, and qPCR performed using BioRad iQ mix. Primers for qPCR were designed using the IDT web site, then tested for each gene. […] Expression levels for each gene were corrected for primer efficiency, normalized to RPL19, then compared to controls (Pfaffl, 2001).
# The optimal signal was determined by incubating cells with 1 ^M dex for 0, 4, 8, and 24 hours. […] Cells were incubated with dex alone, CAL-101 alone, and in combination for 24 hours, then harvested and qPCR performed as described above. Each experiment was performed at least three times, and analyzed using GraphPad (Prism 6). Significant differences between drug and control and between either drug alone and combinations was determined by two sided Student's t-test (P-Value<0.05).
# Three cell lines (NALM6, SUP-B15, and RCH-ACV), one resistant patient sample (HM3101), and one relapsed Phlike xenograft (ALL121) were incubated with increasing concentrations of dex or CAL-101 for 3 days. Cell viability was measured by PrestoBlue staining. Curves, values, and errors are based on at least 3 replicates. Bar plot of the EC50, calculated by four-parameter least-squares fitting (Both plotted and calculated in GraphPad Prism).
# [2] = test system: five B-ALL samples (NALM-6, SUP-B15, RCH-ACV, HM3101, ALL121); assay: Combination of dex and CAL-101: isoboles and combination index (Calcusyn); format: cell-based, human; settings: lowest value over the samples; super additive <1, Calcusyn
# Description: (§2) Cell death assays: We used PrestoBlue to measure cell viability in response to knockdown and treatment. Cells were grown to a density of 250,000 cell/ml, then dispensed into black tissue culture plates and grown overnight. In the morning, cells were treated. For both CAL-101 (Selleckchem, S2226) and dex (Sigma, D4902), viability was measured after 3 days. As PrestoBlue measures NADPH/NADH metabolites, the balance of which can be affected by GC treatment, we performed frequent cell count spot checks manually by trypan blue exclusion to ensure that fluorescence measurements reflected true viability. Both CAL-101 and dex were dissolved in ethanol, and used 1:1000 in cell culture for a final ethanol concentration of 0.1%. Combination treatments were performed in triplicate in 384 well plates with 20 dilutions of dex from 10^M to 0 and 9 dilutions of CAL-101 from 10^M to 0. Viabilities and EC50 were then calculated using four parameter non-least squares fitting using Prism 6. qPCR of Causative genes: Cells were grown to a density of 1 million cells/ml, then aliquoted into 6 well plates in the afternoon, then grown overnight. Cells were then treated with the drugs and times indicated, at which point cells were spun down at 400 g for 5 minutes, the medium aspirated, and the pellet resuspended in 0.7 ml Qiazol/Trizol and frozen. […]
# [3] = test system: relapsed B-ALL cells (ALL121); assay: PDX model of ALL: NSG mice engrafted with ALL121, spleen size and human ALL cells in spleen; format: in vivo; settings: idela monotherapy 50 mg/kg daily, two weeks
# Description: As proof of concept, we tested this combination in a PDX model of ALL.
# [4] = test system: RCH-ACV; assay: qPCR of effector genes, dex and CAL-101 alone and combined, 24 hours; format: cell-based, human; settings: addition of CAL-101 to dex
# Description: as §1
# (§3) The optimal signal was determined by incubating cells with 1 ^M dex for 0, 4, 8, and 24 hours. […] Each experiment was performed at least three times, and analyzed using GraphPad (Prism 6). Significant differences between drug and control and between either drug alone and combinations was determined by two sided Student's t-test (P-Value<0.05).
# [5] = test system: NALM-6; assay: as above; format: cell-based, human; settings: NALM-6, CAL-101 alone
# Description: as §1, §3
# [6] = test system: SUP-B15; assay: as above; format: cell-based, human; settings: SUP-B15, addition of CAL-101 to dex
# Description: as §1, §3
# [7] = test system: resistant patient sample HM3101; assay: Cell death assay (PrestoBlue viability, 3 days); format: cell-based, human; settings: HM3101, highest concentration (10 μM)
# Description: as §2, with “Combination treatments were performed in triplicate in 384 well plates with 20 dilutions of dex from 10^M to 0 and 9 dilutions of CAL-101 from 10^M to 0.” left out, “overnight.” for “overnight. Cells were then treated with the drugs and times indicated, at which point cells were spun down at 400 g for 5 minutes, the medium aspirated, and the pellet resuspended in 0.7 ml Qiazol/Trizol and frozen.”
# The results as shown in FIGS. 14A-14B generally highlight the EC50 of BCP-ALL specimens for dexamethasone and CAL-101. […] Cell viability was measured by PrestoBlue staining. […] Bar plot of the EC50, calculated by four-parameter least-squares fitting (Both plotted and calculated in GraphPad Prism). […]
compound,measurement,setting,value
CC[C@H](Nc1ncnc2[nH]cnc12)c1nc2cccc(F)c2c(=O)n1-c1ccccc1 [CAL-101],death caused by CAL-101,[1],< 50%
same,combination index of dex and CAL-101,[2],≥ 0.13
same,effect on spleens (spleen size),[3],no effect
same,PIK3CD expression,[4],no significant effect
same,TXNIP regulation,[5],no effect
same,PIK3CD expression,[6],no significant effect
same,death caused by CAL-101,[7],< 50%
